Data as given in ChEMBL document CHEMBL1212733, “Chemical genomics in Escherichia coli identifies an inhibitor of bacterial lipoprotein targeting” (Nat Chem Biol, 2009).
Values after ≈ are worked out from the molar mass of the structure shown. Active and inactive are the calls of the source. The calls are words filed in the database; no cut-off is given here.

What was measured:
[1] = system: Pseudomonas aeruginosa; assay: Antibacterial activity against multidrug-resistant Pseudomonas aeruginosa PAE349 after 16 hrs by microbroth dilution method; type: functional; conditions: PAE349, 16 h
[2] = system: HeLa; assay: Cytotoxicity against human HeLa cells after 24 hrs by Cell Titre-Glo luminescent assay; type: cell-based
[3] = system: Pseudomonas aeruginosa; assay: Antibacterial activity against Pseudomonas aeruginosa PAO1 after 16 hrs by microbroth dilution method; type: functional; conditions: PAO1, 16 h
[4] = system: Pseudomonas aeruginosa; assay: Antibacterial activity against multidrug-resistant Pseudomonas aeruginosa PAE252 after 16 hrs by microbroth dilution method; type: functional; conditions: PAE252, 16 h
[5] = system: Pseudomonas aeruginosa; assay: Antibacterial activity against multidrug-resistant Pseudomonas aeruginosa PS232 after 16 hrs by microbroth dilution method; type: functional; conditions: PS232, 16 h
[6] = molecular target: T1, Outer membrane protein TolC (Escherichia coli (strain K12)) (UniProt P02930); assay: Inhibition of IPTG-stimulated Escherichia coli K-12 tolC at 4 fold MIC by microarray analysis
T1 sequence (whole entry): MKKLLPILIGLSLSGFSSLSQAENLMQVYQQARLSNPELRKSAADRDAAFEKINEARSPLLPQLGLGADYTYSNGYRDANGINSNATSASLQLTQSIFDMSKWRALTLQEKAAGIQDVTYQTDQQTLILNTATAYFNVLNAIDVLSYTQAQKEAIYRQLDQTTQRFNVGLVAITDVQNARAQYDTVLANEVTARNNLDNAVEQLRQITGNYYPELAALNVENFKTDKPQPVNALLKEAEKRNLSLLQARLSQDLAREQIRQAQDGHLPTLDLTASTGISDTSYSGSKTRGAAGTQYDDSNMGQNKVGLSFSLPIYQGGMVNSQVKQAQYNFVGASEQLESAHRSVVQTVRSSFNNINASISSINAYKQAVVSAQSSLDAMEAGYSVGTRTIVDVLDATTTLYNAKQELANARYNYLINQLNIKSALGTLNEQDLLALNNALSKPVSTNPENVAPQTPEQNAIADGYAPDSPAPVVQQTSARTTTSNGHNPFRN

[7] = system: Pseudomonas aeruginosa; assay: Antibacterial activity against multidrug-resistant Pseudomonas aeruginosa PS8539204 after 16 hrs by microbroth dilution method; type: functional; conditions: PS8539204, 16 h
[8] = system: Escherichia coli; assay: Antibacterial activity against Escherichia coli K-12 harboring lolA gene after 16 hrs by serial dilution method; type: functional; conditions: K-12, 16 h
[9] = system: Pseudomonas aeruginosa; assay: Antibacterial activity against multidrug-resistant Pseudomonas aeruginosa PS35823 after 16 hrs by microbroth dilution method; type: functional; conditions: PS35823, 16 h
[10] = system: Escherichia coli; assay: Induction of Lpp accumulation in inner membrane of Escherichia coli K-12 MG1655 at 320 ug/ml after 20 mins by autoradiography; type: functional, organism-based
[11] = system: Pseudomonas aeruginosa; assay: Antibacterial activity against multidrug-resistant Pseudomonas aeruginosa PS36769 after 16 hrs by microbroth dilution method; type: functional; conditions: PS36769, 16 h
[12] = molecular target: T1, Outer membrane protein TolC (Escherichia coli (strain K12)); assay: Inhibition of IPTG-stimulated Escherichia coli K-12 tolC at 16 fold MIC by microarray analysis
[13] = system: Pseudomonas aeruginosa; assay: Antibacterial activity against multidrug-resistant Pseudomonas aeruginosa PS37619 after 16 hrs by microbroth dilution method; type: functional; conditions: PS37619, 16 h
[14] = system: Escherichia coli; assay: Antibacterial activity against Escherichia coli ATCC 25922 after 16 hrs by microbroth dilution method; type: functional; conditions: ATCC 25922, 16 h
[15] = molecular target: T2, Outer-membrane lipoprotein carrier protein (Escherichia coli (strain K12)) (UniProt P61316); assay: Inhibition of IPTG-stimulated Escherichia coli K-12 lolA at 8 fold MIC by microarray analysis
T2 sequence (whole entry): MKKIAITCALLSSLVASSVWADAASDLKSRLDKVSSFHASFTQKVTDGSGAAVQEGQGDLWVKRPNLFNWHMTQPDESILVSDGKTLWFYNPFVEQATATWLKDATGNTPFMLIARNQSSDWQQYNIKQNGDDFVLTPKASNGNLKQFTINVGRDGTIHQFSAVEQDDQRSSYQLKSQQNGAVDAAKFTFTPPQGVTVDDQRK

[16] = system: Pseudomonas aeruginosa; assay: Antibacterial activity against multidrug-resistant Pseudomonas aeruginosa PS216 after 16 hrs by microbroth dilution method; type: functional; conditions: PS216, 16 h
[17] = system: Pseudomonas aeruginosa; assay: Antibacterial activity against multidrug-resistant Pseudomonas aeruginosa PAE287 after 16 hrs by microbroth dilution method; type: functional; conditions: PAE287, 16 h
[18] = system: Pseudomonas aeruginosa; assay: Antibacterial activity against multidrug-resistant Pseudomonas aeruginosa PAE231 after 16 hrs by microbroth dilution method; type: functional; conditions: PAE231, 16 h
[19] = system: Escherichia coli; assay: Induction of Lpp accumulation in inner membrane of Escherichia coli K-12 MG1655 at 320 ug/ml after 20 mins by SDS-PAGE; type: functional, organism-based
[20] = system: Staphylococcus aureus; assay: Antibacterial activity against Staphylococcus aureus after 16 hrs by microbroth dilution method; type: functional
[21] = system: Pseudomonas aeruginosa; assay: Antibacterial activity against multidrug-resistant Pseudomonas aeruginosa PS301 after 16 hrs by microbroth dilution method; type: functional; conditions: PS301, 16 h
[22] = molecular target: T2, Outer-membrane lipoprotein carrier protein (Escherichia coli (strain K12)); assay: Inhibition of IPTG-stimulated Escherichia coli K-12 lolA at 16 fold MIC after 16 hrs by spectrophotometry
[23] = system: Burkholderia cepacia; assay: Antibacterial activity against Burkholderia cepacia B154408 after 16 hrs by microbroth dilution method; type: functional; conditions: B154408, 16 h
[24] = system: Pseudomonas aeruginosa; assay: Antibacterial activity against multidrug-resistant Pseudomonas aeruginosa PS8534624 after 16 hrs by microbroth dilution method; type: functional; conditions: PS8534624, 16 h
[25] = system: Stenotrophomonas maltophilia; assay: Antibacterial activity against Stenotrophomonas maltophilia B22020 after 16 hrs by microbroth dilution method; type: functional; conditions: B22020, 16 h
[26] = system: Micrococcus luteus; assay: Antibacterial activity against Micrococcus luteus after 16 hrs by microbroth dilution method; type: functional
[27] = molecular target: Outer-membrane lipoprotein carrier protein (Escherichia coli (strain K12), UniProt P61316); assay: Binding affinity to Escherichia coli K-12 lolA expressed in Escherichia coli BL21(AI) by NMR spectrometry
[28] = molecular target: T2, Outer-membrane lipoprotein carrier protein (Escherichia coli (strain K12)); assay: Inhibition of IPTG-stimulated Escherichia coli K-12 lolA at 4 fold MIC by microarray analysis
[29] = system: Candida albicans; assay: Antifungal activity against Candida albicans after 16 hrs by microbroth dilution method; type: functional
[30] = system: Escherichia coli; assay: Antibacterial activity against Escherichia coli K-12 MG1655 after 16 hrs by microbroth dilution method; type: functional; conditions: K-12 MG1655, 16 h
[31] = molecular target: T1, Outer membrane protein TolC (Escherichia coli (strain K12)); assay: Inhibition of IPTG-stimulated Escherichia coli K-12 tolC at 8 fold MIC by microarray analysis
[32] = system: Pseudomonas aeruginosa; assay: Antibacterial activity against multidrug-resistant Pseudomonas aeruginosa PAE302 after 16 hrs by microbroth dilution method; type: functional; conditions: PAE302, 16 h
[33] = system: Pseudomonas aeruginosa; assay: Antibacterial activity against multidrug-resistant Pseudomonas aeruginosa PS225 after 16 hrs by microbroth dilution method; type: functional; conditions: PS225, 16 h
[34] = molecular target: T2, Outer-membrane lipoprotein carrier protein (Escherichia coli (strain K12)); assay: Inhibition of IPTG-stimulated Escherichia coli K-12 lolA at 16 fold MIC by microarray analysis
[35] = molecular target: Multidrug efflux pump subunit AcrB (Escherichia coli (strain K12)) (UniProt P31224); assay: Binding affinity to Escherichia coli K-12 MC1061 acrB assessed as decrease in susceptibility to compound efflux at 2 to 128 ug/ml after 16 hrs by plate reader assay
[36] = system: Pseudomonas aeruginosa; assay: Antibacterial activity against multidrug-resistant Pseudomonas aeruginosa PS364 after 16 hrs by microbroth dilution method; type: functional; conditions: PS364, 16 h
[37] = system: Bacillus subtilis; assay: Antibacterial activity against Bacillus subtilis 168 after 16 hrs by microbroth dilution method; type: functional; conditions: subsp. subtilis str. 168, 16 h
[38] = system: Pseudomonas aeruginosa; assay: Antibacterial activity against multidrug-resistant Pseudomonas aeruginosa PS37834 after 16 hrs by microbroth dilution method; type: functional; conditions: PS37834, 16 h

Sequence of Multidrug efflux pump subunit AcrB (Escherichia coli (strain K12)) (P31224 whole entry): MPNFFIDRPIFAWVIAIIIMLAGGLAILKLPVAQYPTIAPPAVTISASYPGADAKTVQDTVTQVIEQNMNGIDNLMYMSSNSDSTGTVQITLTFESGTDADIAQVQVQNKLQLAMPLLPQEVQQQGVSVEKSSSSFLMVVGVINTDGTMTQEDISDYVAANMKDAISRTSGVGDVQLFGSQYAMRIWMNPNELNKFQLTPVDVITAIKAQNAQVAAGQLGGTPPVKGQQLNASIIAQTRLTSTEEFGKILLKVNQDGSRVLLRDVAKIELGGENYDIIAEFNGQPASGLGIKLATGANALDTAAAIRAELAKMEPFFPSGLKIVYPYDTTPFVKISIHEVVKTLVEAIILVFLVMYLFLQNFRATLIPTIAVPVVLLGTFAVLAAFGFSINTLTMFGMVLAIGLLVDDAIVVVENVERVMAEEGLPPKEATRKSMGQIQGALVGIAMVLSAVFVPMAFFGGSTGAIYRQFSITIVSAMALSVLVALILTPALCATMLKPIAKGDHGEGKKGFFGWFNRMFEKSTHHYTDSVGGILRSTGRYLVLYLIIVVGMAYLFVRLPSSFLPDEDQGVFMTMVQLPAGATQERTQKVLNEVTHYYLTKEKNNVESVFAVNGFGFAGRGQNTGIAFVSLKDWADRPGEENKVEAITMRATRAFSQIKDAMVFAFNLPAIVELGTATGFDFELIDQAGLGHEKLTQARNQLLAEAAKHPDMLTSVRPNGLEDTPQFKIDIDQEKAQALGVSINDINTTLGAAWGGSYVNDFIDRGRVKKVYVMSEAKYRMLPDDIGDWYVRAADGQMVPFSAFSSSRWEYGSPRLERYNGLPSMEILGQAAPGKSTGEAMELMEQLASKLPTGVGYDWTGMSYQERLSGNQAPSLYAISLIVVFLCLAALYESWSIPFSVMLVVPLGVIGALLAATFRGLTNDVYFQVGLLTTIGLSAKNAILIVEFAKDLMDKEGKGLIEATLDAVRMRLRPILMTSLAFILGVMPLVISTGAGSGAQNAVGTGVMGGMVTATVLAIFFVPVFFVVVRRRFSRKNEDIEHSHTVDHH

Structure (SMILES): COc1ccc(CCN2CN=C(SCc3ccc(Cl)cc3)NC2)cc1OC
- MIC [1]: 4 µg/mL (≈ 9.85 µM)
- Activity [2]: > 256 µg/mL
- MIC [3]: 4 µg/mL (≈ 9.85 µM)
- MIC [4]: 2 µg/mL (≈ 4.93 µM)
- MIC [5]: 4 µg/mL (≈ 9.85 µM)
- inhibition [6]: Active
- MIC [7]: 128 µg/mL (≈ 315 µM)
- MIC [8]: 8 µg/mL (≈ 19.7 µM)
- MIC [9]: 4 µg/mL (≈ 9.85 µM)
- Activity [10]: Active
- MIC [11]: 4 µg/mL (≈ 9.85 µM)
- inhibition [12]: Active
- MIC [13]: 128 µg/mL (≈ 315 µM)
- MIC [14]: 16 µg/mL (≈ 39.4 µM)
- inhibition [15]: Active
- MIC [16]: 16 µg/mL (≈ 39.4 µM)
- MIC [17]: 4 µg/mL (≈ 9.85 µM)
- MIC [18]: 16 µg/mL (≈ 39.4 µM)
- Activity [19]: Active
- MIC [20]: > 256 µg/mL
- MIC [21]: 256 µg/mL (≈ 631 µM)
- inhibition [22]: inactive
- MIC [23]: 128 µg/mL (≈ 315 µM)
- MIC [24]: 2 µg/mL (≈ 4.93 µM)
- MIC [25]: 8 µg/mL (≈ 19.7 µM)
- MIC [26]: > 256 µg/mL
- Kd [27]: 7.5 µM
- inhibition [28]: Active
- MIC [29]: > 256 µg/mL
- MIC [30]: 16 µg/mL (≈ 39.4 µM)
- inhibition [31]: Active
- MIC [32]: 4 µg/mL (≈ 9.85 µM)
- MIC [33]: 1 µg/mL (≈ 2.46 µM)
- inhibition [34]: Active
- Activity [35]: Active
- MIC [36]: 128 µg/mL (≈ 315 µM)
- MIC [37]: > 256 µg/mL
- MIC [38]: 16 µg/mL (≈ 39.4 µM)
